Data taken from patent US11298353B2, “Anti-inflammatory composition” (OSTEONEUROGEN INC., priority 2019, dated 2022).

Tests used:
RAW264.7 cell line [1] = assay: Expression of inflammatory factors in LPS-treated macrophages (real-time PCR or ELISA); assay type: cell-based; details: LPS 100 ng/ml + compound 25 or 50 μM, 24 hours
From the text: In order to confirm the effect of the compound of the present invention in a special anti-inflammatory model, the anti-inflammatory effect of the compound of the present invention was examined using the RAW264.7 cell line (macrophage cell line).
Using the RAW264.7 cell line, the expression of inflammatory factors, INFα, IL-1β, CCL2 (MCP-1), CCL7 (MCP-3), CXCL2, CHOP and NOX1, in a group treated with LPS (lipopolysaccharide) and a group treated with LPS+the compound (Formula 2) of the present invention, was compared by real-time PCR or ELISA.
(§1) Specifically, the RAW264.7 cell line was cultured in RPMI liquid medium, and then divided into a normal control group (untreated), a group treated with LPS (100 ng/ml), and a group treated with the compound of the present invention (cells treated with 100 ng/ml of LPS and treated with 25 or 50 μM of the compound of the present invention). Each of the test groups treated was incubated for 24 hours, and then total RNA was extracted from the cell of each test group and synthesized into cDNA per 1 μg of total RNA, and real-time PCR for each inflammatory factor was performed. The real-time PCR was performed for […], and then the obtained data were statistically processed using t-test.

ONGHEPA1 cell line [2] = assay: CCL2 and CCL7 expression in TGF-β-treated hepatic stellate cells (real-time PCR); assay type: cell-based, mouse; details: TGF-β 10 ng/ml + compound 50 μM
Procedure: (§2) Using the ONGHEPA1 cell line, the production of reactive oxygen species (ROS) in a group treated with TGF-β (10 ng/ml) and a group treated with TGF-β (10 ng/ml)+the compound (Formula 2; 50 μM) of the present invention was compared by cell staining H2DCFDA (ThermoFischer, D399) which is a reactive oxygen species staining reagent, and the expression of CCL2 and CCL7 was compared by real-time PCR.

ONGHEPA1 cell line [3] = assay: Reactive oxygen species production in TGF-β-treated hepatic stellate cells (H2DCFDA staining); assay type: cell-based, mouse; details: TGF-β 10 ng/ml + compound 50 μM
Procedure: as §2

CD14 [4] = assay: CD14 expression in LPS-treated RAW264.7 cells (Western blot); assay type: cell-based; details: LPS 100 ng/ml + compound 50 μM, 5 to 15 minutes after LPS
Procedure: In addition, in order to examine the effect of the compound of the present invention on the expression of CD14, the expression of CD14 in a group treated with LPS (100 ng/ml) and a group treated with 50 μM of the compound (Formula 2) of the present invention was compared by Western blot analysis.

CD14 [5] = target: T1, CD14 (Mus musculus, UniProt P10810); assay: CD14 FITC immunofluorescence staining in LPS-treated RAW264.7 cells; assay type: cell-based; details: LPS 100 ng/ml + compound 50 μM
T1 construct: endogenous in cells; host or cells: RAW264.7
T1 sequence (P10810 16-336): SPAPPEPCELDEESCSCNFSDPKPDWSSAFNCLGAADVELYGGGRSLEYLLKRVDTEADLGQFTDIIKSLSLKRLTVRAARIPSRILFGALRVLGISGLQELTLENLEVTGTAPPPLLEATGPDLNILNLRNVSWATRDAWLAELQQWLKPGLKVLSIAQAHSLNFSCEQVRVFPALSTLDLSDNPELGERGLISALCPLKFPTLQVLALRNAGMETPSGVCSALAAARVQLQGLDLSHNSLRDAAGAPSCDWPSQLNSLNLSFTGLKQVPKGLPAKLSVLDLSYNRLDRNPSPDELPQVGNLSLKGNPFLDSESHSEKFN
From the text: To verify this determination, the change in expression of an early inflammatory response stage factor (a factor involved in the early stage of LPS-induced inflammatory response) by treatment with the compound (Formula 2) of the present invention was examined by immunofluorescence staining using FITC.
Looking at the control group in FIG. 9 (see FIG. 10 which is an enlarged view), it can be seen that FITC fluorescence is concentrated on the surface (membrane portion) of the cell. […] However, looking at the LPS-treated group (see FIG. 10 which is an enlarged view), it can be seen that the cell changes into a circular shape and FITC fluorescence is distributed throughout the cell without being concentrated on the surface of the cell. This means that when treated with LPS, CD14 did bind to LPS and endocytosis occurred. In the case of the group treated with the compound of the present invention (see FIG. 12 which is an enlarged view), the same pattern as that in the control group appeared despite LPS treatment.

ONGHEPA1 cell line [6] = assay: NOX4 expression in TGF-β-treated hepatic stellate cells (real-time PCR, ICC); assay type: cell-based, mouse; details: TGF-β 10 ng/ml + compound 50 μM, real-time PCR and ICC
Procedure: Using the ONGHEPA1 cell line (KCTC13086BP) which is a mouse hepatic stellate cell line, the expression of NOX4 in a group treated with TGF-β (10 ng/ml) and a group treated with TGF-β (10 ng/ml)+the compound (Formula 2; 50 μM) of the present invention was compared by real-time PCR and immunocytochemistry (ICC).

RAW264.7 cell line [7] = assay: TNFα expression in macrophages treated with various concentrations of LPS (real-time PCR); assay type: cell-based; details: LPS 100 ng/ml to 10 μg/ml + compound 50 μM
Procedure: as §1
In addition, according to the same method as described above, the RAW264.7 cell line was treated with various concentrations (100 ng/ml to 10 μg/ml) of LPS, and the effect of treatment with 50 μM of the compound (Formula 2) of the present invention was examined.

[8] = tested on: diseased human lung fibroblasts (DHLFs); assay: Transcriptome analysis of TGF-β-treated diseased human lung fibroblasts; assay type: cell-based; details: TGF-β 10 ng/ml + compound 50 μM, genes up-regulated at p<0.005
Procedure: Using diseased human lung fibroblasts (DHLFs) isolated from idiopathic pulmonary fibrosis patients, transcriptomes were analyzed comparatively between a group treated with TGF-β (10 ng/ml) and a group treated with TGF-β (10 ng/ml)+the compound (Formula 2) (50 μM) of the present invention.

## COc1ccc(-c2cc(=O)c3c(O)c(OC)c(OCCN4CCNC(=O)C4)cc3o2)cc1OC [Formula 2]
RAW264.7 cell line [1]
  expression of CCL2 (MCP-1): decreased
  expression of CCL7 (MCP-3): decreased
  expression of CHOP: decreased
  expression of CXCL2: decreased
  expression of IL-1β: decreased
  expression of INFα: decreased
  expression of NOX1: decreased
ONGHEPA1 cell line [2]
  expression of CCL2: inhibited
  expression of CCL7: inhibited
ONGHEPA1 cell line [3]
  production of reactive oxygen species: inhibited
CD14 [4]
  increase in expression of CD14: decreased
CD14 [5]
  activity of CD14 involved in the early stage of inflammatory response: inhibited
  interaction between CD14 and LPS (CD14 endocytosis pattern): blocked the interaction between CD14 and LPS
ONGHEPA1 cell line [6]
  increase in the expression of NOX4: inhibited
RAW264.7 cell line [7]
  expression of TNFα: blocked the expression of TNFα regardless of the concentration of LPS
[8]
  inhibition of TGF-β up-regulated gene expression: NOX4: selected genes included NOX4
